Experiments:
[1] = test system: influenza A strains: H1N1 strain A/PR8 and H5N1 strain A/NIBRG-14; assay type: cell-based
[2] = test system: ZIKV (African strain MR766); experiment: microbe, parasite or virus in culture; assay type: cell-based, Zika virus
[3] = target: PB2 (FLAG-tagged, A/WSN-FLAG) (Influenza A virus, UniProt P03427); assay type: cell-based, influenza A/WSN/1933(H1N1)
[4] = test system: influenza A strains (H1N1, H3N2, H3N3, H3N8, H5N1); assay type: cell-based
[5] = test system: influenza B virus strains (B/Mem, B/Wis, B/Bris); assay type: cell-based
influenza B/Mem [6] = assay type: cell-based, influenza B/Memphis/12/97
influenza B/Mem [7] = assay type: cell-based, influenza B/Memphis/12/97; remark: listed apart in the source
influenza B/Mem [8] = test system: influenza B/Mem; design: species or system BALB/c mice; details: mouse, in vivo, iv, 2.5 mg/kg
[9] = test system: PB2CB from influenza B/Mem (PB2IBV); assay type: biochemical
[10] = mouse, in vivo, iv, 10 mg/kg
[11] = target: mouse PrP^C in L929 15.9 and CAD5 cells (Mus musculus, UniProt P04925)
[12] = target: the molecule itself

PB2 (FLAG-tagged, A/WSN-FLAG), sequence (P03427 whole entry, looked up): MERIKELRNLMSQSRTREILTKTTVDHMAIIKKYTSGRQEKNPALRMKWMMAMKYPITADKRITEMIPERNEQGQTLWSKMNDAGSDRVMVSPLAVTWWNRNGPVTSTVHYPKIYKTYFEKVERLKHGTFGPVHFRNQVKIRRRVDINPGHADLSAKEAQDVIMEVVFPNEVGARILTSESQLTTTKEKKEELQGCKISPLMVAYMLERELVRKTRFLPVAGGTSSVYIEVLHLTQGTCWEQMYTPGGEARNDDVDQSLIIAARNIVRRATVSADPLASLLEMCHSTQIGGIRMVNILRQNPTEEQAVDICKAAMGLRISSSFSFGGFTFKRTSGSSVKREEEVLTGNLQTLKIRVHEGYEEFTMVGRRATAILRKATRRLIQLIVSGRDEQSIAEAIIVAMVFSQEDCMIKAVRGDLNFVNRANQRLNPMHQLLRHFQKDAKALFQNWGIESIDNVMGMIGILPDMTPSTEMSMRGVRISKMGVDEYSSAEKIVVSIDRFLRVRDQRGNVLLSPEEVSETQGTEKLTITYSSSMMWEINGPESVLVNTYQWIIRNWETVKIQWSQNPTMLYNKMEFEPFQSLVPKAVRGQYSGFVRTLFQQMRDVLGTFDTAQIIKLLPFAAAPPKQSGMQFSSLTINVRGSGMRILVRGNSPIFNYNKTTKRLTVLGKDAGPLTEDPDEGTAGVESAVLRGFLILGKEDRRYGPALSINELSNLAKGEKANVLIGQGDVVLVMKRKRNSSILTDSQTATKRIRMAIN
mouse PrP^C in L929 15.9 and CAD5 cells, sequence (P04925 23-230 limits assumed): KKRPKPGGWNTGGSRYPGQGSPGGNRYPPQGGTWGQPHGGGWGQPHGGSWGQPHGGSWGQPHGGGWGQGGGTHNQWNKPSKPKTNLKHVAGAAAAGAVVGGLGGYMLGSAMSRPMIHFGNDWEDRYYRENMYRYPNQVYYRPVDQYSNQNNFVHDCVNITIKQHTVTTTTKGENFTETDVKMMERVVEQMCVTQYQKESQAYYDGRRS

## Ac-RLIQLIVSRPPRLIQLIVSR-NH2 [compound 12]
[1]
  amount of newly produced virus (TCID50 titration), antiviral screen: showed the most pronounced effect
MDCK cells
  aspecific cytotoxic effects on MDCK cells: did not originate from aspecific cytotoxic effects

## C[C@@]1(O)[C@H](O)[C@@H](CO)O[C@H]1n1ccc2c(N)ncnc21 [7-DMA, 7-deaza-2′-C-methyladenosine, reference compound]
[2]; Zika virus, Vero C1008, 48 h, n = 3, read-out: IC50, fraction of ZIKV-infected cells
  IC50: 4.74 ± 0.31 µM
Vero E6 cells
  aspecific toxicity on the mammalian host cell: did not originate from aspecific toxicity

## Ac-WDLIQLIVSDGSDLIQLIVSD-NH2 [12B]
[3]
  soluble PB2 in infected cells: reduction of soluble PB2
[4]
  antiviral activity on influenza A strains with APR polymorphisms: retains activity against all these influenza A strains
[5]
  antiviral activity in time of addition assays and pretreatment of influenza B virion particles: showed no antiviral activity
  effect on replication of influenza B virus strains: did not interfere with the replication
Influenza B/Mem [6]
  influenza B replication in multicycle replication assay: unaffected
Influenza B/Mem [7]
  protection against cytopathic effects of influenza B: no protection against cytopathic effects
Influenza B/Mem [8]
  influenza B replication in the murine infection model (viral load in lungs): not affected
[9]
  effect on aggregation or conformational stability of PB2IBV (Th-T, ANS): showed no effect on the aggregation or conformational stability
[2]
  interference with ZIKV replication: no interference with ZIKV replication is observed
MDCK cells
  aspecific toxic effects on MDCK cells: no aspecific toxic effects were observed
HEK 293T cells
  aspecific toxic effects on HEK 293T cells: no aspecific toxic effects were observed
[10]
  blood analysis and histopathological evaluation of all major organs: revealed no abnormalities
[11]
  conversion of PrP to the aggregated prion state (PrP^SC): incapable to convert PrP

B1: peptide 12B (peptide)
peptide: WDLIQLIVSDGSDLIQLIVSD
notes: also called amyloid peptide 12B; synthetic amyloid 12B; source: synthetic peptide
[12]
  binding result: binds

— publication PMC7275043 (Nature Communications, 2020)
